Source: patent EP0238060B1, “Cephalosporin derivatives, processes for their preparation and antibacterial agents” (Banyu Pharmaceutical Co., Ltd., priority 1986, dated 1987)
Values after ≈ are worked out from the molar mass of the structure shown. Where two headings read alike, the source gives them in different places.

Legend:
[1] = test system: Enterobacter cloacae GN 5797; experiment: Induction of β-lactamase by β-lactam antibiotics; assay type: cell-based; details: for Specific activity (unit/mg protein): induced β-lactamase activity of crude enzyme, Concentration 10 µg/ml, Incubation time 3 hr, Substrate: 100 µM of cephaloridine
Method: The assay method for induction of β-lactamase by β-latam antibiotics was as follows: The test organism, Enterobacter cloacae GN 5797, was grown overnight in Mueller Hinton broth (Dlfco Laboratories, Detroit, Mich.) at 37°C. The culture was diluted l0-fold into 20 ml of the flesh medium and incubated with shaking at 37°C. After 2 hours of incubation, antibiotics were added to final concentrations of 50 µg/ml, l0 µg/ml and l µg/ml, and the incubation was continued. At l hour intervals after the addition of antibiotic, 5 ml of sample was taken, and immediately added with 0.l ml of 50 mM sodium azide. The cells were harvested and washed with 50 mM phosphate buffer (pH 7.0). The cells were suspended in 5 ml of 50 mM phosphate buffer and disrupted with a sonicater in an ice-water bath. The broken cells were centrifuged at l6,500 G for 40 minutes at 4°C, and the resulting supernatant fluid was used as the crude enzyme. β-Lactamase activity was determined by a spectrophotometric method (Antmicrob. Agents Chemother. 17, 355-358, 1980) with cephaloridine as substrate. The concentration of protein was determined by the method of Lowry (J. Biol. Chem. 193, 265-275, 1951).

Ps.maltophilia GN 12873 = experiment: In vitro antibacterial activity, agar plate dilution method (MIC); assay type: cell-based, Pseudomonas maltophilia; details: Stenotrophomonas maltophilia, read-out: Minimum Inhibitory Concentration (MIC: µg/ml)
Ps.aeruginosa IFO3445 = experiment: as above; assay type: cell-based; details: Pseudomonas aeruginosa, read-out: Minimum Inhibitory Concentration (MIC: µg/ml)
S.marcescens No. 16-2 = experiment: as above; assay type: cell-based; details: Serratia marcescens, read-out: Minimum Inhibitory Concentration (MIC: µg/ml)
S.epidermidis IAM12012 = experiment: as above; assay type: cell-based; details: Staphylococcus epidermidis, read-out: Minimum Inhibitory Concentration (MIC: µg/ml)
S.aureus BB5703 = experiment: as above; assay type: cell-based; details: Staphylococcus aureus, read-out: Minimum Inhibitory Concentration (MIC: µg/ml)
C.freundii GN346/16 = experiment: as above; assay type: cell-based; details: Citrobacter freundii, read-out: Minimum Inhibitory Concentration (MIC: µg/ml)
K.pneumoniae PCI-602 = experiment: as above; assay type: cell-based; details: Klebsiella pneumoniae, read-out: Minimum Inhibitory Concentration (MIC: µg/ml)
Ps.aeruginosa AK 109 = experiment: as above; assay type: cell-based; details: Pseudomonas aeruginosa, read-out: Minimum Inhibitory Concentration (MIC: µg/ml)
M.morganii GN5407 = experiment: as above; assay type: cell-based; details: Morganella morganii, read-out: Minimum Inhibitory Concentration (MIC: µg/ml)
E.cloacae Nek 39 = experiment: as above; assay type: cell-based; details: Enterobacter cloacae, read-out: Minimum Inhibitory Concentration (MIC: µg/ml)
E.coli NIHJ JC2 = experiment: as above; assay type: cell-based; details: Escherichia coli, read-out: Minimum Inhibitory Concentration (MIC: µg/ml)
M.luteus ATCC9341 = experiment: as above; assay type: cell-based; details: Micrococcus luteus, read-out: Minimum Inhibitory Concentration (MIC: µg/ml)
E.coli CSH2 (RK1) = experiment: as above; assay type: cell-based; details: Escherichia coli, 16 h, read-out: Minimum Inhibitory Concentration (MIC: µg/ml)
C.freundii GN346 = experiment: as above; assay type: cell-based; details: Citrobacter freundii, read-out: Minimum Inhibitory Concentration (MIC: µg/ml)
K.oxytoca GN10650 = experiment: as above; assay type: cell-based; details: Klebsiella oxytoca, read-out: Minimum Inhibitory Concentration (MIC: µg/ml)
E.coli CSH(RE45) = experiment: as above; assay type: cell-based; details: Escherichia coli, 16 h, read-out: Minimum Inhibitory Concentration (MIC: µg/ml)
P.vulgaris No. 33 = experiment: as above; assay type: cell-based; details: Proteus vulgaris, NO.33, 16 h, read-out: Minimum Inhibitory Concentration (MIC: µg/ml)
E.coli GN5482 = experiment: as above; assay type: cell-based; details: Escherichia coli, read-out: Minimum Inhibitory Concentration (MIC: µg/ml)
P.vulgaris HX-19 = experiment: as above; assay type: cell-based; details: Proteus vulgaris, read-out: Minimum Inhibitory Concentration (MIC: µg/ml)
S.marcescens IAM 1184 = experiment: as above; assay type: cell-based; details: Serratia marcescens, IAM1184, 16 h, read-out: Minimum Inhibitory Concentration (MIC: µg/ml)
E.cloacae 963 = experiment: as above; assay type: cell-based; details: Enterobacter cloacae, 963, 16 h, read-out: Minimum Inhibitory Concentration (MIC: µg/ml)
Ps.aeruginosa AKR17 = experiment: as above; assay type: cell-based; details: Pseudomonas aeruginosa, read-out: Minimum Inhibitory Concentration (MIC: µg/ml)
K.pneumoniae No. 42 = experiment: as above; assay type: cell-based; details: Klebsiella pneumoniae, read-out: Minimum Inhibitory Concentration (MIC: µg/ml)
A.calcoaceticus No. 4 = experiment: as above; assay type: cell-based; details: Acinetobacter calcoaceticus, read-out: Minimum Inhibitory Concentration (MIC: µg/ml)
S.aureus JS1 = experiment: as above; assay type: cell-based; details: Staphylococcus aureus, read-out: Minimum Inhibitory Concentration (MIC: µg/ml)
S.aureus 209P NIHJ-JC1 = experiment: as above; assay type: cell-based; details: Staphylococcus aureus, read-out: Minimum Inhibitory Concentration (MIC: µg/ml)
Ps.cepacia 23 = experiment: as above; assay type: cell-based, Pseudomonas cepacia; details: read-out: Minimum Inhibitory Concentration (MIC: µg/ml)

With CO[C@@]1(NC(=O)Cc2cccs2)C(=O)N2C(C(=O)O)=C(COC(N)=O)CS[C@@H]21 [Cefoxitin, reference compound] the “Specific activity (unit/mg protein)” value [1] was 0.238 unit/mg protein.
C=C(O/N=C(\C(=O)NC1C(=O)N2C(C(=O)[O-])=C(C[n+]3ccc4cc(O)c(O)cc4c3)CSC12)c1csc(N)n1)C(=O)O (stereo not drawn) [Ex. 6, 7-[2-(2-aminothiazol-4-yl)-2-(l-carboxy-l-vinyloxyimino)acetamido]-3-(6,7-dihydroxy-2-isoquinolinio)methyl-3-cephem-4-carboxylate] gave an MIC (Ps.maltophilia GN 12873; GN12873, Ps.maltophilia GN 12873 (β-Lactamase-producing strain), Mueller Hinton agar, inoculum 10⁶ CFU/ml, 37°C, 16 hours) of 25 µg/mL (≈ 40.8 µM), an MIC (Ps.aeruginosa IFO3445; Ps.aeruginosa IFO3445, Mueller Hinton agar, inoculum 10⁶ CFU/ml, 37°C, 16 hours) of 1.56 µg/mL (≈ 2.55 µM) and an MIC (S.marcescens No. 16-2; NO.162, S.marcescens No. 16-2 (β-Lactamase-producing strain), Mueller Hinton agar, inoculum 10⁶ CFU/ml, 37°C, 16 hours) of 0.1 µg/mL (≈ 0.163 µM). For the same molecule, the MIC (S.epidermidis IAM12012; S.epidermidis IAM12012, Mueller Hinton agar, inoculum 10⁶ CFU/ml, 37°C, 16 hours) was 12.5 µg/mL (≈ 20.4 µM), the MIC (S.aureus BB5703; S.aureus BB5703, Mueller Hinton agar, inoculum 10⁶ CFU/ml, 37°C, 16 hours) was 50 µg/mL (≈ 81.6 µM) and the MIC (C.freundii GN346/16; C.freundii GN346/16, Mueller Hinton agar, inoculum 10⁶ CFU/ml, 37°C, 16 hours) was 1.56 µg/mL (≈ 2.55 µM). It also gave an MIC (K.pneumoniae PCI-602; PCI602, K.pneumoniae PCI-602, Mueller Hinton agar, inoculum 10⁶ CFU/ml, 37°C, 16 hours) of less than 0.006 µg/mL, an MIC (Ps.aeruginosa AK 109; AK109, Ps.aeruginosa AK 109, Mueller Hinton agar, inoculum 10⁶ CFU/ml, 37°C, 16 hours) of 0.39 µg/mL (≈ 0.637 µM) and an MIC (M.morganii GN5407; M.morganii GN5407 (β-Lactamase-producing strain), Mueller Hinton agar, inoculum 10⁶ CFU/ml, 37°C, 16 hours) of 0.05 µg/mL (≈ 0.0816 µM). It also gave an MIC (E.cloacae Nek 39; NEK39, E.cloacae Nek 39 (β-Lactamase-producing strain), Mueller Hinton agar, inoculum 10⁶ CFU/ml, 37°C, 16 hours) of 0.025 µg/mL (≈ 0.0408 µM), an MIC (E.coli NIHJ JC2; NIHJJC2, E.coli NIHJ JC2, Mueller Hinton agar, inoculum 10⁶ CFU/ml, 37°C, 16 hours) of 0.1 µg/mL (≈ 0.163 µM) and an MIC (M.luteus ATCC9341; M.luteus ATCC9341, Mueller Hinton agar, inoculum 10⁶ CFU/ml, 37°C, 16 hours) of 6.25 µg/mL (≈ 10.2 µM). It also gave an MIC (E.coli CSH2 (RK1)) of 0.0125 µg/mL (≈ 0.0204 µM), an MIC (C.freundii GN346; C.freundii GN346 (β-Lactamase-producing strain), Mueller Hinton agar, inoculum 10⁶ CFU/ml, 37°C, 16 hours) of 50 µg/mL (≈ 81.6 µM) and an MIC (K.oxytoca GN10650; K.oxytoca GN10650 (β-Lactamase-producing strain), Mueller Hinton agar, inoculum 10⁶ CFU/ml, 37°C, 16 hours) of 0.05 µg/mL (≈ 0.0816 µM). It also gave an MIC (E.coli CSH(RE45)) of 0.025 µg/mL (≈ 0.0408 µM), an MIC (P.vulgaris No. 33) of 0.0125 µg/mL (≈ 0.0204 µM) and an MIC (E.coli GN5482; E.coli GN5482 (β-Lactamase-producing strain), Mueller Hinton agar, inoculum 10⁶ CFU/ml, 37°C, 16 hours) of 0.2 µg/mL (≈ 0.326 µM). For the same molecule, the MIC (P.vulgaris HX-19; HX19, P.vulgaris HX-19, Mueller Hinton agar, inoculum 10⁶ CFU/ml, 37°C, 16 hours) was less than 0.006 µg/mL, the MIC (S.marcescens IAM 1184) was 0.0125 µg/mL (≈ 0.0204 µM) and the MIC (E.cloacae 963) was 0.0125 µg/mL (≈ 0.0204 µM). It also gave an MIC (Ps.aeruginosa AKR17; Ps.aeruginosa AKR17, Mueller Hinton agar, inoculum 10⁶ CFU/ml, 37°C, 16 hours) of 1.56 µg/mL (≈ 2.55 µM), an MIC (K.pneumoniae No. 42; K.pneumoniae No. 42 (β-Lactamase-producing strain), Mueller Hinton agar, inoculum 10⁶ CFU/ml, 37°C, 16 hours) of 0.025 µg/mL (≈ 0.0408 µM) and an MIC (A.calcoaceticus No. 4; A.calcoaceticus No. 4, Mueller Hinton agar, inoculum 10⁶ CFU/ml, 37°C, 16 hours) of 0.2 µg/mL (≈ 0.326 µM). The MIC (S.aureus JS1; S.aureus JS1 (β-Lactamase-producing strain), Mueller Hinton agar, inoculum 10⁶ CFU/ml, 37°C, 16 hours) was 100 µg/mL (≈ 163 µM), the MIC (S.aureus 209P NIHJ-JC1; S.aureus 209P NIHJ-JC1, Mueller Hinton agar, inoculum 10⁶ CFU/ml, 37°C, 16 hours) was 25 µg/mL (≈ 40.8 µM) and the MIC (Ps.cepacia 23; Burkholderia cepacia, Ps.cepacia 23, Mueller Hinton agar, inoculum 10⁶ CFU/ml, 37°C, 16 hours) was 0.025 µg/mL (≈ 0.0408 µM).
CC(C)(O/N=C(\C(=O)NC1C(=O)N2C(C(=O)[O-])=C(C[n+]3ccc4cc(O)c(O)cc4c3)CSC12)c1csc(N)n1)C(=O)O (stereo not drawn) [Ex. 4, 7-[2-(2-aminothiazol-4-yl)-2-(l-carboxy-l-methylethoxyimino)acetamido]-3-(6,7-dihydroxy-2-isoquinolinio)methyl-3-cephem-4-carboxylate] was tested, and the “Specific activity (unit/mg protein)” value [1] was 0.064 unit/mg protein, the β-lactamase inducibility ([1]; measured by Enterobacter cloacae GN 5797) was “no substantial β-lactamase-inducing activity was observed” and the MIC (Ps.maltophilia GN 12873; GN12873, 16 h) was 1.56 µg/mL (≈ 2.48 µM). For the same molecule, the MIC (Ps.aeruginosa IFO3445; IFO3445, 16 h) was 0.2 µg/mL (≈ 0.318 µM), the MIC (S.marcescens No. 16-2; NO.162, 16 h) was 0.2 µg/mL (≈ 0.318 µM) and the MIC (S.epidermidis IAM12012; IAM12012, 16 h) was 12.5 µg/mL (≈ 19.9 µM). The MIC (S.aureus BB5703; BB5703, 16 h) was 50 µg/mL (≈ 79.5 µM), the MIC (C.freundii GN346/16; GN346, 16 h) was 1.56 µg/mL (≈ 2.48 µM) and the MIC (K.pneumoniae PCI-602; PCI602, 16 h) was less than 0.006 µg/mL. It also gave an MIC (Ps.aeruginosa AK 109; AK109, 16 h) of 0.2 µg/mL (≈ 0.318 µM), an MIC (M.morganii GN5407; GN5407, 16 h) of 0.05 µg/mL (≈ 0.0795 µM) and an MIC (E.cloacae Nek 39; NEK39, 16 h) of 0.025 µg/mL (≈ 0.0398 µM). The MIC (E.coli NIHJ JC2; NIHJJC2, 16 h) was 0.1 µg/mL (≈ 0.159 µM), the MIC (M.luteus ATCC9341; ATCC9341, 16 h) was 6.25 µg/mL (≈ 9.94 µM) and the MIC (E.coli CSH2 (RK1)) was less than 0.006 µg/mL. The MIC (C.freundii GN346; GN346, 16 h) was 50 µg/mL (≈ 79.5 µM), the MIC (K.oxytoca GN10650; GN10650, 16 h) was less than 0.006 µg/mL and the MIC (E.coli CSH(RE45)) was 0.39 µg/mL (≈ 0.62 µM). The MIC (P.vulgaris No. 33) was 0.0125 µg/mL (≈ 0.0199 µM), the MIC (E.coli GN5482; GN5482, 16 h) was 0.39 µg/mL (≈ 0.62 µM) and the MIC (P.vulgaris HX-19; HX19, 16 h) was less than 0.006 µg/mL. For the same molecule, the MIC (S.marcescens IAM 1184) was 0.0125 µg/mL (≈ 0.0199 µM), the MIC (E.cloacae 963) was 0.025 µg/mL (≈ 0.0398 µM) and the MIC (Ps.aeruginosa AKR17; AKR17, 16 h) was 0.78 µg/mL (≈ 1.24 µM). It also gave an MIC (K.pneumoniae No. 42; NO.42, 16 h) of 0.025 µg/mL (≈ 0.0398 µM), an MIC (A.calcoaceticus No. 4; NO.4, 16 h) of 0.1 µg/mL (≈ 0.159 µM) and an MIC (S.aureus JS1; JS1, 16 h) of 100 µg/mL (≈ 159 µM). For the same molecule, the MIC (S.aureus 209P NIHJ-JC1; 16 h) was 25 µg/mL (≈ 39.8 µM) and the MIC (Ps.cepacia 23; Burkholderia cepacia, 23, 16 h) was less than 0.006 µg/mL.
